From ChEMBL document CHEMBL2390897, “3-Anhydro-6-hydroxy-ophiobolin A, a new sesterterpene inhibiting the growth of methicillin-resistant Staphylococcus aureus and inducing the cell death by apoptosis on K562, from the phytopathogenic fungus Bipolaris oryzae” (Bioorg Med Chem Lett, 2013)
≈ marks a conversion by molar mass, not a printed value.

The compounds below were run on Mycobacterium tuberculosis (assay: Antimicrobial activity against Bacille Calmette-Guerin). Conditions: variant bovis BCG.
Assay type: functional

Compared with `CC(C)=C[C@H]1C[C@H](C)[C@]2(CC[C@]3(C)C[C@@H]4C(C)=CC(=O)[C@]4(O)/C(C=O)=C\C[C@H]32)O1`, `CC(C)=C[C@H]1C[C@H](C)[C@]2(CC[C@]3(C)C[C@@H]4C(C)=CC(=O)[C@@H]4/C(C=O)=C\C[C@H]32)O1` is higher in MIC: 12.5 µg/mL (≈ 31.4 µM) for the first, greater than 100 µg/mL for the second.

Compared with `CC(C)=C[C@H]1C[C@H](C)[C@]2(CC[C@]3(C)C[C@@H]4C(C)=CC(=O)[C@H]4/C(C=O)=C\C[C@H]32)O1` [3-ANHYDRO-6-EPI-OPHIOBOLIN A], `NNC(=O)c1ccncc1` [ISONIAZID] is lower in MIC: greater than 100 µg/mL for the first, 0.05 µg/mL (≈ 0.365 µM) for the second.
